In US9662357B2, “Bacterium and extracts of said bacterium and the use of same in dermatology” (PIERRE FABRE DERMO-COSMETIQUE, priority 2010, dated 2017):

Tests used:
Assay type in all cases: cell-based
[1] = system: Bacterium LMB64; assay: Antibiotic sensitivity of bacterium LMB64, zone of inhibition; details: disc load given with each antibiotic; for Zone of inhibition diameter (mm) LB ½: LB ½ dilution medium; for Zone of inhibition diameter (mm) LB ⅕: LB ⅕ dilution medium; for Zone of inhibition diameter (mm) R3: R3 medium
[2] = system: Skinkine; assay: PCR array, NHEK atopic dermatitis phenotype: Skinkine; details: Homo sapiens, read-out: percentage of inhibition Skinkine
Protocol: (§1) The study was carried out on normal human epidermal keratinocytes (NHEK, K-SFM culture medium) in the context of the induction of an atopic dermatitis phenotype.

[3] = system: IFN-β1; assay: PCR array, NHEK atopic dermatitis phenotype: IFN-β1; details: Homo sapiens, read-out: percentage of inhibition IFN-β1
Protocol: as §1

[4] = system: MlP-1α; assay: PCR array, NHEK atopic dermatitis phenotype: MlP-1α; details: Homo sapiens, read-out: percentage of inhibition MlP-1α
Protocol: as §1

[5] = system: RARRES3; assay: PCR array, NHEK atopic dermatitis phenotype: RARRES3; details: Homo sapiens, read-out: percentage of inhibition RARRES3
Protocol: as §1

[6] = system: MDC; assay: PCR array, NHEK atopic dermatitis phenotype: MDC; details: Homo sapiens, read-out: percentage of inhibition MDC
Protocol: as §1

[7] = system: TSLP; assay: PCR array, NHEK atopic dermatitis phenotype: TSLP; details: Homo sapiens, read-out: percentage of inhibition TSLP
Protocol: as §1

[8] = system: IL-1α; assay: PCR array, NHEK atopic dermatitis phenotype: IL-1α; details: Homo sapiens, read-out: percentage of inhibition IL-1α
Protocol: as §1

[9] = system: RANTES; assay: PCR array, NHEK atopic dermatitis phenotype: RANTES; details: Homo sapiens, read-out: percentage of inhibition RANTES
Protocol: as §1

[10] = system: IL-8; assay: PCR array, NHEK atopic dermatitis phenotype: IL-8; details: Homo sapiens, read-out: percentage of inhibition IL-8
Protocol: as §1

[11] = system: MIP-3α; assay: PCR array, NHEK atopic dermatitis phenotype: MIP-3α; details: Homo sapiens, read-out: percentage of inhibition MIP-3α
Protocol: as §1

[12] = system: IL-4-R; assay: PCR array, NHEK atopic dermatitis phenotype: IL-4-R; details: Homo sapiens, read-out: percentage of inhibition IL-4-R
Protocol: as §1

[13] = system: IL-18; assay: PCR array, NHEK atopic dermatitis phenotype: IL-18; details: Homo sapiens, read-out: percentage of inhibition IL-18
Protocol: as §1

| Compound | Zone of inhibition diameter (mm) LB ½ [1] [mm] | Zone of inhibition diameter (mm) LB ⅕ [1] [mm] | Zone of inhibition diameter (mm) R3 [1] [mm] | further results |
| --- | --- | --- | --- | --- |
| [H]/N=C(/N)N[C@H]1[C@H](O)[C@@H](O)[C@H](O[C@@H]2O[C@@H](C)[C@](O)(C=O)[C@H]2O[C@@H]2O[C@@H](CO)[C@H](O)[C@@H](O)[C@@H]2NC)[C@@H](N/C(N)=N\[H])[C@@H]1O [Streptomycin] | 25 | 24 | 25 |  |
| C[C@@H]1C[C@H]2[C@@H]3CCC4=CC(=O)C=C[C@]4(C)[C@@]3(F)[C@@H](O)C[C@]2(C)[C@@]1(O)C(=O)CO [Dexamethasone] |  |  |  | inhibition at 2 µM [2]: 59%; inhibition at 2 µM [3]: 49%; inhibition at 2 µM [4]: 76%; inhibition at 2 µM [5]: 28%; inhibition at 2 µM [6]: 45%; inhibition at 2 µM [7]: 91%; inhibition at 2 µM [8]: 54%; inhibition at 2 µM [9]: 12%; inhibition at 2 µM [10]: 75%; inhibition at 2 µM [11]: 40%; inhibition at 2 µM [12]: 75%; inhibition at 2 µM [13]: 44% |
| Penicillin | 26 | 20 | 21 |  |
| CO[C@H]1/C=C/O[C@@]2(C)Oc3c(C)c(O)c4c(O)c(c(/C=N/N5CCN(C)CC5)c(O)c4c3C2=O)NC(=O)/C(C)=C\C=C\[C@H](C)[C@H](O)[C@@H](C)[C@@H](O)[C@@H](C)[C@H](OC(C)=O)[C@@H]1C [Rifampicin] | 19 | 15 | 20 |  |
| Polymyxin B | 15 | 13 | 11 |  |
| O=C(N[C@H](CO)[C@H](O)c1ccc([N+](=O)[O-])cc1)C(Cl)Cl [Chloramphenicol] | 26 | 24 | 29 |  |
| CN(C)[C@@H]1C(O)=C(C(N)=O)C(=O)[C@@]2(O)C(O)=C3C(=O)c4c(O)cccc4[C@@](C)(O)[C@H]3C[C@@H]12 [Tetracycline] | 25 | 20 | 30 |  |
| O=C(O)c1cn(C2CC2)c2cc(N3CCNCC3)c(F)cc2c1=O [Ciprofloxacin] |  | 34 | 38 |  |
| NC[C@H]1O[C@H](O[C@H]2[C@H](O)[C@@H](O[C@H]3O[C@H](CO)[C@@H](O)[C@H](N)[C@H]3O)[C@H](N)C[C@@H]2N)[C@H](O)[C@@H](O)[C@@H]1O [Kanamycin] | 30 | 27 | 27 |  |
| CC1(C)S[C@@H]2[C@H](NC(=O)[C@H](N)c3ccccc3)C(=O)N2[C@H]1C(=O)O [Ampicillin] | 28 | 29 | 29 |  |
| CN[C@H](CC(C)C)C(=O)N[C@H]1C(=O)N[C@@H](CC(N)=O)C(=O)N[C@H]2C(=O)N[C@H]3C(=O)N[C@H](C(=O)N[C@H](C(=O)O)c4cc(O)cc(O)c4-c4cc3ccc4O)[C@H](O)c3ccc(c(Cl)c3)Oc3cc2cc(c3O[C@@H]2O[C@H](CO)[C@@H](O)[C@H](O)[C@H]2O[C@H]2C[C@](C)(N)[C@H](O)[C@H](C)O2)Oc2ccc(cc2Cl)[C@H]1O [Vancomycin] | 21 | 21 | 20 |  |
